Measurements: patent US20250325677A1, “STAT6 DEGRADERS” (Gilead Sciences, Inc., priority 2024, published 2025)

Target: STAT6 (Homo sapiens (Human), UniProt P42226)
Experiment: STAT6 degrader assay (HiBiT, HeLa LgBiT clone 4.14)
Format: cell-based
Settings: HeLa LgBiT clone 4.14, 4-24 h; for DC50: geometric mean, given for compounds with >80% Emax, read-out: STAT6 degradation DC50; for Emax: read-out: STAT6 degradation Emax (%)
Experimental: This was a HiBit based assay. A HeLa cell line stably transfected with a small protein, LgBit (Large Bit) was obtained from Promega. These cells express endogenous STAT6. A small 11 amino acid gene sequence (HiBiT) was inserted in the STAT6 gene using CRISPR technology. Once STAT6 protein is expressed in the cells, the HiBiT sequence will bind the LgBit in the cells resulting in a functional NanoBiT protein, giving a luminescent tag to STAT6, see FIG. 2.
Single cell clones were prepared and the clone 4.14 was selected for the assay based on that clone showing high luminescence, high STAT6 phosphorylation upon stimulation with IL-4, and inhibition of luminescence when cells were treated with STAT6 siRNA.
HeLa LgBiT clone 4.14 cells were suspended in DMEM with 10% FCS, 1% Pen/Strep, Na-pyrovate and Hygromycin B, at a concentration of 1.25*105 cells pr mL. 5000 cells were added pr well of a 384 well plate and 20 nL of compound was added by Echo® liquid handler. NN6394A (terfenadine, a toxic compound) was added to control wells at 50 μM concentration to establish the assay window. In these wells the cells are dead which equals 100% degradation of STAT6.
After 4-24 h of incubation at 37° C. under 5% CO2/95% air, 5 μL substrate (Nano-GLO®) was added to the wells and the plates were centrifuged and incubated for 0.5 h.
The luminescence in the wells as a measure of non-degraded STAT6 was measured in a plate reader (BMG Pherastar FSX). The measured DC50 (in nM) was determined.
The dose-response curves Examples 3p1, 3e50, 3e17, and 3e51 are shown below (where percent degradation is plotted vs. test compound concentration in M on a log-scale).

Sequence of STAT6 (P42226 whole entry): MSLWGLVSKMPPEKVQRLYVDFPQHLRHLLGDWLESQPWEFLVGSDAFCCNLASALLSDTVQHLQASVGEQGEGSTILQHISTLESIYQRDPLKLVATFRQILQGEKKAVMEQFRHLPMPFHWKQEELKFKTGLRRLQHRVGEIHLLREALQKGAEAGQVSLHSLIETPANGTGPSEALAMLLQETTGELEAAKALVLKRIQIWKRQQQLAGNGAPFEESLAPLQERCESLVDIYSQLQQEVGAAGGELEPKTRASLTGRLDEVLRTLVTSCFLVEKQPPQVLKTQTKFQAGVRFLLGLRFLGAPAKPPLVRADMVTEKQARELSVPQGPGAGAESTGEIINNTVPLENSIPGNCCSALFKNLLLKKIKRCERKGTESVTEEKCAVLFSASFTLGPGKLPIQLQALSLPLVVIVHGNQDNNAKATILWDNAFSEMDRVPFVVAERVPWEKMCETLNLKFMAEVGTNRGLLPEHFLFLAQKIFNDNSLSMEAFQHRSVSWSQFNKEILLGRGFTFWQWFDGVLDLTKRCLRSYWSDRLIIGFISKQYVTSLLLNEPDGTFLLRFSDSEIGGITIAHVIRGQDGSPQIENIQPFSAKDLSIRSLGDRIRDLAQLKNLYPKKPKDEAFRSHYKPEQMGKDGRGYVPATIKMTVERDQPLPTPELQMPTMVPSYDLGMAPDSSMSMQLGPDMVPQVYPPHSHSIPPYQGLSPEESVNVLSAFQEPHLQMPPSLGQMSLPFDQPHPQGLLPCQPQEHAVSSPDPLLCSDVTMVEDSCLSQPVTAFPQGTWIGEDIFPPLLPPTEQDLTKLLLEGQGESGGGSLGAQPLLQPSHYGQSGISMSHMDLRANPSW

Row | Structure (SMILES) | DC50 [nM] | Emax [%]
1 | Cc1cc(C(=O)N2CCC(CN3CCN(Cc4ccc5c(c4)n(C4CC4)c(=O)n5C4CCC(=O)NC4=O)C[C@@H]3C)CC2)cc(F)c1C1=CCN([C@@H](C)c2cc3c(-c4ccc(N)nc4)ccnc3n2C)CC1 (stereo partly drawn) [Example 3h15, 3-(5-(((S)-4-((1-(4-(1-((S)-1-(4-(6-aminopyridin-3-yl)-1-methyl-1H-pyrrolo[2,3-b]pyridin-2-yl)ethyl)-1,2,3,6-tetrahydropyridin-4-yl)-3-fluoro-5-methylbenzoyl)piperidin-4-yl)methyl)-3-methyl-piperazin-1-yl)methyl)-3-cyclopropyl-2-oxo-2,3-dihydro-1H-benzo[d]imidazol-1-yl)piperidine-2,6-dione] | 1.1 | –
2 | CNc1ccc(-c2ccnc3c2cc([C@H](C)N2CC=C(c4c(C)cc(C(=O)N5CCC(CN6CCN(c7ccc8c(c7)C7(CC7)C(=O)N8C7CCC(=O)NC7=O)C[C@@H]6C)CC5)cc4F)CC2)n3C)cn1 (stereo partly drawn) [Example 3h19, 3-(5′-((S)-4-((1-(3-fluoro-5-methyl-4-(1-((S)-1-(1-methyl-4-(6-(methylamino)pyridin-3-yl)-1H-pyrrolo[2,3-b]pyridin-2-yl)ethyl)-1,2,3,6-tetrahydropyridin-4-yl)benzoyl)piperidin-4-yl)methyl)-3-methylpiperazin-1-yl)-2′-oxospiro[cyclopropane-1,3′-indolin]-1′-yl)piperidine-2,6-dione] | – | 40 to 50
3 | CNc1ccc(-c2ccnc3c2cc([C@H](C)N2CCC(c4ccc(C(=O)N5CCC(CN6CCN(Cc7cc8c(cc7F)n(C7CCC(=O)NC7=O)c(=O)n8C)C[C@@H]6C)CC5)cc4)CC2)n3C)cn1 (stereo partly drawn) [Example 3h21, 3-(6-fluoro-3-methyl-5-(((S)-3-methyl-4-((1-(4-(1-((S)-1-(1-methyl-4-(6-(methylamino)pyridin-3-yl)-1H-pyrrolo[2,3-b]pyridin-2-yl)ethyl)piperidin-4-yl)benzoyl)piperidin-4-yl)methyl)piperazin-1-yl)methyl)-2-oxo-2,3-dihydro-1H-benzo[d]imidazol-1-yl)piperidine-2,6-dione] | 1 | –
4 | CNc1ccc(-c2ccnc3c2cc([C@H](C)N2CCC(c4ccc(C(=O)N5CCC(CN6CCN(Cc7cc8c(cc7F)n([C@@H]7CCC(=O)NC7=O)c(=O)n8C)C[C@@H]6C)CC5)cc4)CC2)n3C)cn1 [Example 3h22, (R)-3-(6-fluoro-3-methyl-5-(((S)-3-methyl-4-((1-(4-(1-((S)-1-(1-methyl-4-(6-(methylamino)pyridin-3-yl)-1H-pyrrolo[2,3-b]pyridin-2-yl)ethyl)piperidin-4-yl)benzoyl)piperidin-4-yl)methyl)piperazin-1-yl)methyl)-2-oxo-2,3-dihydro-1H-benzo[d]imidazol-1-yl)piperidine-2,6-dione] | 0.9 | –
5 | CNc1ccc(-c2ccnc3c2cc([C@H](C)N2CCC(c4ccc(C(=O)N5CCC(CN6CCN(Cc7cc8c(cc7F)n([C@H]7CCC(=O)NC7=O)c(=O)n8C)C[C@@H]6C)CC5)cc4)CC2)n3C)cn1 [Example 3h23, (S)-3-(6-fluoro-3-methyl-5-(((S)-3-methyl-4-((1-(4-(1-((S)-1-(1-methyl-4-(6-(methylamino)pyridin-3-yl)-1H-pyrrolo[2,3-b]pyridin-2-yl)ethyl)piperidin-4-yl)benzoyl)piperidin-4-yl)methyl)piperazin-1-yl)methyl)-2-oxo-2,3-dihydro-1H-benzo[d]imidazol-1-yl)piperidine-2,6-dione] | 1.5 | –
6 | C[C@H]1CN(Cc2ccc3c(c2)n(C2CC2)c(=O)n3C2CCC(=O)N(C)C2=O)CCN1CC1CCN(C(=O)c2ccc(C3CCN([C@@H](C)c4cc5c(-c6ccc(N)nc6)ccnc5n4C)CC3)cc2)CC1 (stereo partly drawn) [Example 3h28, 3-(5-(((S)-4-((1-(4-(1-((S)-1-(4-(6-aminopyridin-3-yl)-1-methyl-1H-pyrrolo[2,3-b]pyridin-2-yl)ethyl)piperidin-4-yl)benzoyl)piperidin-4-yl)methyl)-3-methylpiperazin-1-yl)methyl)-3-cyclopropyl-2-oxo-2,3-dihydro-1H-benzo[d]imidazol-1-yl)-1-methylpiperidine-2,6-dione] | – | 20 to 30

Continued, values first:

Row | DC50 [nM] | Emax [%] | Structure (SMILES)
7 | 0.1 | – | Cc1cc(C(=O)N(C)c2ccc(C3CCN(Cc4ccc5c(c4)n(C)c(=O)n5C4CCC(=O)NC4=O)CC3)cc2)cc(F)c1C1=CCN(Cc2cc3c(-c4ccc(N)nc4)ccnc3n2C)CC1 (centres unmarked) [Example 3h39, 4-(1-((4-(6-aminopyridin-3-yl)-1-methyl-1H-pyrrolo[2,3-b]pyridin-2-yl)methyl)-1,2,3,6-tetrahydropyridin-4-yl)-N-(4-(1-((1-(2,6-dioxopiperidin-3-yl)-3-methyl-2-oxo-2,3-dihydro-1H-benzo[d]imidazol-5-yl)methyl)piperidin-4-yl)phenyl)-3-fluoro-N,5-dimethylbenzamide]
8 | – | < 20 | CNc1ccc(-c2ccnc3c2cc(CN2CCC(c4c(F)cc(C(=O)N5CCC(CN6CCN(c7cc8c(cc7F)n(C7CCC(=O)NC7=O)c(=O)n8C)CC6)CC5)cc4F)CC2)n3C)cn1 (centres unmarked) [Example 3h49, 3-(5-(4-((1-(3,5-difluoro-4-(1-((1-methyl-4-(6-(methylamino)pyridin-3-yl)-1H-pyrrolo[2,3-b]pyridin-2-yl)methyl)piperidin-4-yl)benzoyl)piperidin-4-yl)methyl)piperazin-1-yl)-6-fluoro-3-methyl-2-oxo-2,3-dihydro-1H-benzo[d]imidazol-1-yl)piperidine-2,6-dione]
9 | – | 50 to 60 | Cn1c(CN2CCC(c3ccc(C(=O)N4CCC(CN5CCN(Cc6cccc7c6n(C)c(=O)n7C6CCC(=O)NC6=O)CC5)CC4)cc3)CC2)cc2c(-c3ccc4[nH]ncc4c3)ccnc21 (centres unmarked) [Example 3i1, 3-(4-((4-((1-(4-(1-((4-(1H-indazol-5-yl)-1-methyl-1H-pyrrolo[2,3-b]pyridin-2-yl)methyl)-piperidin-4-yl)benzoyl)piperidin-4-yl)methyl)piperazin-1-yl)methyl)-3-methyl-2-oxo-2,3-dihydro-1H-benzo[d]imidazol-1-yl)piperidine-2,6-dione]
10 | – | 20 to 30 | Cn1c(CN2CCC(c3ccc(C(=O)N4CCC(N5CCN(Cc6ccc7c(c6)n(C)c(=O)n7C6CCC(=O)NC6=O)CC5)CC4)cc3)CC2)cc2c(-c3ccc4[nH]ncc4c3)ccnc21 (centres unmarked) [Example 3j1, 3-(5-((4-(1-(4-(1-((4-(1H-indazol-5-yl)-1-methyl-1H-pyrrolo[2,3-b]pyridin-2-yl)methyl)piperidin-4-yl)benzoyl)piperidin-4-yl)piperazin-1-yl)methyl)-3-methyl-2-oxo-2,3-dihydro-1H-benzo[d]imidazol-1-yl)piperidine-2,6-dione]
11 | – | < 20 | Cn1c(CN2CCC(c3ccc(C(=O)N4CCC(N5CCN(Cc6cccc7c6n(C)c(=O)n7C6CCC(=O)NC6=O)CC5)CC4)cc3)CC2)cc2c(-c3ccc4[nH]ncc4c3)ccnc21 (centres unmarked) [Example 3j2, 3-(4-((4-(1-(4-(1-((4-(1H-indazol-5-yl)-1-methyl-1H-pyrrolo[2,3-b]pyridin-2-yl)methyl)piperidin-4-yl)benzoyl)piperidin-4-yl)piperazin-1-yl)methyl)-3-methyl-2-oxo-2,3-dihydro-1H-benzo[d]imidazol-1-yl)piperidine-2,6-dione]
12 | – | 20 to 30 | Cn1c(CN2CCC(c3ccc(C(=O)N4CCN(CC5CCN(Cc6cccc7c6n(C)c(=O)n7C6CCC(=O)NC6=O)CC5)CC4)cc3)CC2)cc2c(-c3ccc4[nH]ncc4c3)ccnc21 (centres unmarked) [Example 3k1, 3-(4-((4-((4-(4-(1-((4-(1H-indazol-5-yl)-1-methyl-1H-pyrrolo[2,3-b]pyridin-2-yl)methyl)-piperidin-4-yl)benzoyl)piperazin-1-yl)methyl)piperidin-1-yl)methyl)-3-methyl-2-oxo-2,3-dihydro-1H-benzo[d]imidazol-1-yl)piperidine-2,6-dione]
13 | – | 20 to 30 | Cn1c(CN2CCC(c3ccc(C(=O)N4CCC(Cn5cc(-c6cccc7c6n(C)c(=O)n7C6CCC(=O)NC6=O)cn5)CC4)cc3)CC2)cc2c(-c3ccc4[nH]ncc4c3)ccnc21 (centres unmarked) [Example 3l1, 3-(4-(1-((1-(4-(1-((4-(1H-indazol-5-yl)-1-methyl-1H-pyrrolo[2,3-b]pyridin-2-yl)methyl)piperidin-4-yl)benzoyl)piperidin-4-yl)methyl)-1H-pyrazol-4-yl)-3-methyl-2-oxo-2,3-dihydro-1H-benzo[d]imidazol-1-yl)piperidine-2,6-dione]
14 | 3 | – | Cn1c(CN2CCC(c3ccc(C(=O)N4CCC(CCn5cc(-c6cccc7c6n(C)c(=O)n7C6CCC(=O)NC6=O)cn5)CC4)cc3)CC2)cc2c(-c3ccc4[nH]ncc4c3)ccnc21 (centres unmarked) [Example 3l2, 3-(4-(1-(2-(1-(4-(1-((4-(1H-indazol-5-yl)-1-methyl-1H-pyrrolo[2,3-b]pyridin-2-yl)methyl)-piperidin-4-yl)benzoyl)piperidin-4-yl)ethyl)-1H-pyrazol-4-yl)-3-methyl-2-oxo-2,3-dihydro-1H-benzo[d]-imidazol-1-yl)piperidine-2,6-dione]
